Assay results: patent US20240417403A1, “CRYSTALLINE FORMS OF QUINAZOLINE DERIVATIVES, PREPARATION, COMPOSITION AND USE THEREOF” (Hoffmann-La Roche Inc., priority 2021, published 2024)
Where a name gives a salt, the structure may show the parent alone.

Legend:
Type in all cases: physicochemical
[1] = TGA and DSC/mDSC thermal analysis (characterization of forms)
Protocol: In salt screening and evaluation and in polymorph study, TGA was performed using a TA Q500, TA Q5000 or Discovery 5500 TGA from TA Instruments. DSC or mDSC was performed using a TA Q200/Q2000 or Discovery 2500 DSC from TA Instruments.

[2] = Bulk density, tap density and Carr index (flowability and compressibility); conditions: for Carr index: (ρ1−ρ0)/ρ1; for Tapped density: tapped 200 times
Protocol: Bulk density was determined by adding appropriate amount (m) of material into a 5 mL graduate cylinder and recording its apparent volume (v0). The bulk density was obtained by dividing the amount of material by its apparent volume of the unsettled material (ρ0=m/v0). For tap density, the cylinder was then tapped for 200 times. The tap density was then calculated by dividing the amount of material by its final tapped volume (ρ1=m/v1). Carr index=(ρ1−ρ0)/ρ1.
(§1) The results of amorphous freebase, Freebase Type F, Fumarate Type B and Fumarate Type E for flowability and compressibility were summarized in Table 30. Generally, powders with smaller Karl index would show better compressibility and flowability. And powders with smaller angle of repose would show better flowability.

[3] = Angle of repose (flowability)
Description: Form the angle of repose on a fixed base with a retaining lip to retain a layer of powder on the base. Carefully build up a symmetrical cone of powder. Determine the angle of repose by measuring the height (h) and base radius (r) of the cone of powder and calculating the angle of repose a from the following equation α=tan^−1(h/r).
as §1

[4] = Solid state stability, 40° C./75% RH/open for 1 month (XRPD, HPLC purity); conditions: for Purity/Initial by HPLC area % / Form Change: 40° C., 75% RH, open; for Form Change: by XRPD; for Purity change by HPLC (chemical stability) compared with amorphous freebase: 40° C./75% RH; for Solid form change by XRPD (physical stability): 40° C./75% RH/open
Protocol: (§2) An Agilent 1260 HPLC instrument was utilized and detailed chromatographic conditions for purity and solubility analysis were listed in Table 6.
To evaluate the solid state stability of the selected forms (amorphous freebase, Freebase Type F, Fumarate Type A and Fumarate Type B) samples were stored under 40° C./75% RH/open for 1 month. Stability samples were characterized by XRPD to check any solid form change and by HPLC to check purity change.

[5] = Hygroscopicity by DVS; conditions: 80% RH, 25° C.
Protocol: DVS is measured via a SMS (Surface Measurement Systems) DVS Intrinsic. The relative humidity at 25° C. is calibrated against deliquescence point of LiCl, Mg(NO3)2 and KCl.
DVS isotherm plot was collected at 25° C. to investigate the selected solid forms stability as a function of humidity. Compared with amorphous freebase, the hygroscopicity of Freebase Type B, Fumarate Type A, Fumarate Type B and Fumarate Type E was lower under 80% RH/25° C.

[6] = Kinetic solubility in FaSSIF; conditions: 37° C.
Protocol: as §2
Kinetic solubility of amorphous freebase and Fumarate Type B/E was measured in FaSSIF to evaluate the solubility. […] After centrifugation, supernatants were collected for HPLC tests.

[7] = Equilibrium solubility in pH 6.8 buffer; conditions: 37° C., stirred 24 hours
Protocol: as §2
About 5˜10 mg of solids were suspended in pH 6.8 buffer to get a mixture. The suspensions were stirred for 24 hours, followed by centrifugation and filtration to obtain supernatants for HPLC test.

[8] = Equilibrium solubility in H2O; conditions: 37° C., stirred 24 hours
Protocol: as §2
About 5˜10 mg of solids were suspended in H2O to get a mixture. The suspensions were stirred for 24 hours, followed by centrifugation and filtration to obtain supernatants for HPLC test.

[9] = Contact angle against water (wettability)
Protocol: The wettability of the solid forms was evaluated by the contact angle against water.

[10] = Equilibrium solubility in pH 4.5 buffer; conditions: 37° C., stirred 24 hours
Protocol: as §2
About 5˜10 mg of solids were suspended in pH 4.5 buffer to get a mixture. The suspensions were stirred for 24 hours, followed by centrifugation and filtration to obtain supernatants for HPLC test.

[11] = Mechanical stability (XRPD form change after grinding and tableting)
Protocol: Mechanical stability of the solid forms was evaluated by monitoring the XRPD form change after grinding (˜5 min) and tableting (˜234 Mpa).

[12] = crystalline salts, listed as HCl salt Type A
[13] = crystalline salts, listed as HCl salt Type B

COc1ccc2ncnc(Nc3ccc(Oc4cc5ncnn5cn4)c(C)c3)c2c1O[C@@H]1CCN(C)CC1(F)F [Adipate Type A, (R)-N-(4-([1,2,4]triazolo[1,5-c]pyrimidin-7-yloxy)-3-methylphenyl)-5-((3,3-difluoro-1-methylpiperidin-4-yl)oxy)-6-methoxyquinazolin-4-amine]
TGA weight loss (150° C., %) ([1]; crystalline salts): 3.0%
DSC endotherm (° C., peak) ([1]; crystalline salts): 106.7 °C

COc1ccc2ncnc(Nc3ccc(Oc4cc5ncnn5cn4)c(C)c3)c2c1O[C@@H]1CCN(C)CC1(F)F [Amorphous Fumarate, (R)-N-(4-([1,2,4]triazolo[1,5-c]pyrimidin-7-yloxy)-3-methylphenyl)-5-((3,3-difluoro-1-methylpiperidin-4-yl)oxy)-6-methoxyquinazolin-4-amine]
TGA weight loss (%, temp.) ([1]; fumarate forms, to 150° C.): 3.6 (to 150° C.) %

COc1ccc2ncnc(Nc3ccc(Oc4cc5ncnn5cn4)c(C)c3)c2c1O[C@@H]1CCN(C)CC1(F)F [Freebase Type A, (R)-N-(4-([1,2,4]triazolo[1,5-c]pyrimidin-7-yloxy)-3-methylphenyl)-5-((3,3-difluoro-1-methylpiperidin-4-yl)oxy)-6-methoxyquinazolin-4-amine]
DSC endotherm (° C., peak) ([1]; free base forms): 71.3 °C
TGA weight loss (%, temp.) ([1]; free base forms, to 140° C.): 9.9 (to 140° C.) %

COc1ccc2ncnc(Nc3ccc(Oc4cc5ncnn5cn4)c(C)c3)c2c1O[C@@H]1CCN(C)CC1(F)F [Freebase Type C, (R)-N-(4-([1,2,4]triazolo[1,5-c]pyrimidin-7-yloxy)-3-methylphenyl)-5-((3,3-difluoro-1-methylpiperidin-4-yl)oxy)-6-methoxyquinazolin-4-amine]
TGA weight loss (%, temp.) ([1]; free base forms, to 150° C.): 1.5 (to 150° C.) %

COc1ccc2ncnc(Nc3ccc(Oc4cc5ncnn5cn4)c(C)c3)c2c1O[C@@H]1CCN(C)CC1(F)F [Freebase Type F, (R)-N-(4-([1,2,4]triazolo[1,5-c]pyrimidin-7-yloxy)-3-methylphenyl)-5-((3,3-difluoro-1-methylpiperidin-4-yl)oxy)-6-methoxyquinazolin-4-amine]
Bulk density [2]: 0.19 g/mL
Carr index [2]: 31.9%
Tapped density [2]: 0.28 g/mL
Angle of repose [3]: 35.8°
Purity/Initial by HPLC area % [4]: 100.3%
Form Change [4]: No
Purity change by HPLC (chemical stability) compared with amorphous freebase [4]: lower purity change
Solid form change by XRPD (physical stability) [4]: no form change
TGA weight loss (%, temp.) ([1]; free base forms, to 70° C.): 5.7 (to 70° C.) %

COc1ccc2ncnc(Nc3ccc(Oc4cc5ncnn5cn4)c(C)c3)c2c1O[C@@H]1CCN(C)CC1(F)F [Freebase Type G, (R)-N-(4-([1,2,4]triazolo[1,5-c]pyrimidin-7-yloxy)-3-methylphenyl)-5-((3,3-difluoro-1-methylpiperidin-4-yl)oxy)-6-methoxyquinazolin-4-amine]
TGA weight loss (%, temp.) ([1]; free base forms, to 70° C.): 7.3 (to 70° C.) %

COc1ccc2ncnc(Nc3ccc(Oc4cc5ncnn5cn4)c(C)c3)c2c1O[C@@H]1CCN(C)CC1(F)F [Fumarate Type B, (R)-N-(4-([1,2,4]triazolo[1,5-c]pyrimidin-7-yloxy)-3-methylphenyl)-5-((3,3-difluoro-1-methylpiperidin-4-yl)oxy)-6-methoxyquinazolin-4-amine]
Bulk density [2]: 0.36 g/mL
Carr index [2]: 30.4%
Tapped density [2]: 0.52 g/mL
Weight change at 80% RH/25° C. by DVS [5]: 2.1%
Solubility in FaSSIF ([6]; timepoint 1 h): ≥390 µg/mL
Solubility in FaSSIF ([6]; timepoint 2 h): ≥390 µg/mL
Solubility in FaSSIF ([6]; timepoint 24 h): ≥390 µg/mL
Angle of repose [3]: 26.6°
Solubility in pH 6.8 buffer [7]: 0.90 mg/mL
Purity/Initial by HPLC area % [4]: 99.6%
Form Change [4]: No
Purity change by HPLC (chemical stability) compared with amorphous freebase [4]: lower purity change
Solid form change by XRPD (physical stability) [4]: no form change
Solubility in H2O [8]: ≥5200 µg/mL
TGA weight loss (150° C., %) ([1]; crystalline salts): 4.9%
TGA weight loss (%, temp.) ([1]; fumarate forms, to 150° C.): 4.9 (to 150° C.) %
Contact angle [9]: 29.0°
Solubility in pH 4.5 buffer [10]: 2.3 mg/mL

COc1ccc2ncnc(Nc3ccc(Oc4cc5ncnn5cn4)c(C)c3)c2c1O[C@@H]1CCN(C)CC1(F)F [Fumarate Type E, (R)-N-(4-([1,2,4]triazolo[1,5-c]pyrimidin-7-yloxy)-3-methylphenyl)-5-((3,3-difluoro-1-methylpiperidin-4-yl)oxy)-6-methoxyquinazolin-4-amine]
Bulk density [2]: 0.30 g/mL
Carr index [2]: 41.7%
Tapped density [2]: 0.51 g/mL
Weight change at 80% RH/25° C. by DVS [5]: 2.1%
XRPD form change after grinding ([11]; grinding ~5 min): No
XRPD form change after tableting ([11]; tableting ~234 Mpa): No
Solubility in FaSSIF ([6]; timepoint 1 h): ≥360 µg/mL
Solubility in FaSSIF ([6]; timepoint 2 h): ≥360 µg/mL
Solubility in FaSSIF ([6]; timepoint 24 h): ≥360 µg/mL
Angle of repose [3]: 38.3°
Solubility in pH 6.8 buffer [7]: 0.92 mg/mL
Solubility in H2O [8]: ≥5000 µg/mL
TGA weight loss (150° C., %) ([1]; crystalline salts): 9.4%
TGA weight loss (%, temp.) ([1]; fumarate forms, to 150° C.): 9.4 (to 150° C.) %
Solubility in pH 4.5 buffer [10]: 1.3 mg/mL

COc1ccc2ncnc(Nc3ccc(Oc4cc5ncnn5cn4)c(C)c3)c2c1O[C@@H]1CCN(C)CC1(F)F [HCl Salt Type A, (R)-N-(4-([1,2,4]triazolo[1,5-c]pyrimidin-7-yloxy)-3-methylphenyl)-5-((3,3-difluoro-1-methylpiperidin-4-yl)oxy)-6-methoxyquinazolin-4-amine]
TGA weight loss (150° C., %) [1, 12]: 8.8%
DSC endotherm (° C., peak) [1, 12]: 110.0 °C

COc1ccc2ncnc(Nc3ccc(Oc4cc5ncnn5cn4)c(C)c3)c2c1O[C@@H]1CCN(C)CC1(F)F [HCl Salt Type B, (R)-N-(4-([1,2,4]triazolo[1,5-c]pyrimidin-7-yloxy)-3-methylphenyl)-5-((3,3-difluoro-1-methylpiperidin-4-yl)oxy)-6-methoxyquinazolin-4-amine]
TGA weight loss (150° C., %) [1, 13]: 2.3%
DSC endotherm (° C., peak) [1, 13]: 241.7 °C

COc1ccc2ncnc(Nc3ccc(Oc4cc5ncnn5cn4)c(C)c3)c2c1O[C@@H]1CCN(C)CC1(F)F [L-tartrate Type A, (R)-N-(4-([1,2,4]triazolo[1,5-c]pyrimidin-7-yloxy)-3-methylphenyl)-5-((3,3-difluoro-1-methylpiperidin-4-yl)oxy)-6-methoxyquinazolin-4-amine]
TGA weight loss (150° C., %) ([1]; crystalline salts): 3.7%

COc1ccc2ncnc(Nc3ccc(Oc4cc5ncnn5cn4)c(C)c3)c2c1O[C@@H]1CCN(C)CC1(F)F [Mesylate Type A, (R)-N-(4-([1,2,4]triazolo[1,5-c]pyrimidin-7-yloxy)-3-methylphenyl)-5-((3,3-difluoro-1-methylpiperidin-4-yl)oxy)-6-methoxyquinazolin-4-amine]
TGA weight loss (150° C., %) ([1]; crystalline salts): 10.2%
DSC endotherm (° C., peak) ([1]; crystalline salts): 65.1 °C

COc1ccc2ncnc(Nc3ccc(Oc4cc5ncnn5cn4)c(C)c3)c2c1O[C@@H]1CCN(C)CC1(F)F [Mesylate Type B, (R)-N-(4-([1,2,4]triazolo[1,5-c]pyrimidin-7-yloxy)-3-methylphenyl)-5-((3,3-difluoro-1-methylpiperidin-4-yl)oxy)-6-methoxyquinazolin-4-amine]
TGA weight loss (150° C., %) ([1]; crystalline salts): 7.6%
DSC endotherm (° C., peak) ([1]; crystalline salts): 63.4 °C

COc1ccc2ncnc(Nc3ccc(Oc4cc5ncnn5cn4)c(C)c3)c2c1O[C@@H]1CCN(C)CC1(F)F [Phosphate Type A, (R)-N-(4-([1,2,4]triazolo[1,5-c]pyrimidin-7-yloxy)-3-methylphenyl)-5-((3,3-difluoro-1-methylpiperidin-4-yl)oxy)-6-methoxyquinazolin-4-amine]
TGA weight loss (150° C., %) ([1]; crystalline salts): 9.5%
